Reference: publication PMC4738305, “Metabolism and Disposition of Aditoprim in Swine, Broilers, Carp and Rats” (Scientific Reports, 2016)

Experiments:
[1] = Metabolite profiling of ADP in excreta, plasma and bile (LC-v.ARC/MS-IT-TOF); type: in vivo, swine; conditions: for percentage of the individual metabolite compared with the total concentration of ADP-related: within 6 h after dosing; for Average percentage of ADP and its metabolites in total dose: Swine, Urine, single oral 5 mg/kg b.w. ^3H-ADP
Experimental: (§1) Animals (4 swine, 6 broilers, 6 carp, and 3 male and 3 female rats) were housed individually in clean, suspended wire-mesh metabolism cages, designed to separate the urine from the feces (carp were raised in individual aquaria). Each animal was weighed and assigned with a permanent identification number. A single dose of ^3 H-ADP (5 mg/kg b. w., 0.1 Ci/g) was administered via the oral gavage. Excreta were collected on ice at the pre-administration, in the period of 6, 12, and 24 h on day 1 d, and afterwards, intermittently in the period of 24 h up to 14 d. The piscine excreta were collected by changing and collecting raised water. The total volume or weight of each sample was measured and homogenized. The total radioactivity levels were determined through LSC for the recovery calculations. After the preparation, the samples were analyzed through LC/MS-IT-TOF with v. ARC radiometric detection (XenoBioticLaboratories, Inc.) for metabolite profiling. The pretreatment samples were used as controls to determine the background radioactivity or the endogenous nondrug-related ions observed within respective matrices or their extracts.
(§2) A total of 36 animals from each species (swine n = 24) were randomly assigned to six equal treatment groups and administered a single daily dose of ^3 H-ADP at 5 mg/kg b. w. (0.1 Ci/g) through oral gavage for 7 consecutive days. All the animals were housed on the basis of their group in the cages or aquaria throughout the whole study period. A group of animals was slaughtered through exsanguination under diethyl ether inhalation of anesthesia in the period of 6 h, 1, 3, 7, 14, and 21 d after the administration. The blood samples were immediately collected into the heparinized tubes and was centrifuged at 1920 × g at 4 °C for 10 min to obtain the plasma. The tissues from the heart, liver, spleen, lung, kidney, craw (broilers), stomach, intestine, fat, skin, muscle, thymus, pancreas, bile, bladder, hair (scale for carp), genital gland, adrenal glands, swim bladder (carp), brain, lymph, and bursa (broilers) were carefully excised and collected. The tissues were thoroughly rinsed with the deionized water to remove the residuary blood, blotted to dryness, and finally to perform the homogenization. In order to avoid cross-contamination the dissecting instruments were washed during the tissue procurements. The blank tissues were collected in order to provide control matrices. The total radioactivity levels in each sample were determined through LSC. The samples extracted from the plasma, bile, and tissues of the liver, kidney, muscle, and fat/skin were analyzed through LC/MS-IT-TOF and v. ARC radiometric detection for metabolite profiling. The blank samples were used as control to determine the background radioactivity or the endogenous nondrug-related ions observed within respective matrices or their extracts.
(§3) For metabolite profiling, the urine and feces samples from each animals were pooled proportionally to the excreted amount in each sampling period from 0 to 6 h, 6 h to 1 d, 1 to 3 d, 3 to 7 d, and 7 to 14 d post-dose, respectively. All samples were fully homogenized before the process. The pre-dose and blank samples served as the controls for determining the background radioactivity or the endogenous, nondrug-related ions observed within respective matrices or their extracts.
(§4) The urine samples (plasma, bile and raised water for carp) was subjected to solid-phase extraction with an Oasis MCX cartridge (3 mL, […]; Waters, Milford, MA, USA) for metabolite purification and enrichment. The pH value was adjusted to 2.8–3.2 by adding 1 M hydrochloric acid (HCl), and 2 mL of the sample was transferred into MCX cartridge, which was preconditioned with 3 mL of methanol and 3 mL of 0.1 mol/L HCl solution. The cartridge was washed with 3 mL of 0.1 mol/L HCl solution and was eluted with 5 mL of NH4OH/methanol (4:96, v:v). The effluent was concentrated to dryness under a stream of nitrogen at 40 °C. […]

[2] = as above; type: in vivo, broilers
Experimental: as §1, §2, §3, §4

[3] = Concentration and elimination of ADP and its metabolites in liver, kidney, muscle, fat/skin after oral ^3H-ADP for 7 d; type: in vivo, swine; conditions: swine, oral, 5 mg/kg b.w.
Experimental: as §2
(§5) The feces and tissues (2 g) were diluted with a mixture of methanol and chloroform (1:3, v:v; 2 mL/g homogenate). This procedure was carried out in a fume hood for the safety aspects. The pH value was adjusted to 9.0 with NH4OH. The mixture was vortexed and sonicated for 5 min and 10 min, respectively, and finally the samples were centrifuged at 7690 × g for 10 min. The supernatant was aspirated and then transferred into a new centrifuge tube. The obtained pellet was again subjected to the same process of vortex, ultrasonication, extraction, and centrifugation. The combined supernatant was concentrated under a stream of nitrogen in a water bath at 40 °C. The residue was reconstituted with 0.3 mL of methanol–water (1:9, v:v) before the injection into the LC-v. ARC/MS-IT-TOF system for analysis.
(§6) ADP and its metabolites in the prepared samples were determined with a v. ARC radiometric detector and a hybrid IT/TOF mass spectrometer connected to the HPLC system (Shimadzu Corp., Kyoto, Japan). The LC system was equipped with a solvent delivery pump (LC-20AD), an auto-sampler (SIL-20AC), a degasser (DGU-20 A 3), a photodiode array detector (SPD-M20A), a communication base module (CBM-20 A), and a column oven (CTO-20AC). The chromatographic separation was achieved by using an Agilent extend-C18 column (2.1 mm × 150 mm, 5 μm) with a gradient mobile phase of A (0.01% ammonia and 5 mM ammonium acetate in water) and B (methanol) at a flow rate of 0.2 mL/min. The column temperature was maintained at 35 °C. Various HPLC methods were performed because of the large number of different metabolites to be analyzed. For the porcine sample, method 1 started at 5% B and increased to 20% B over 35 min, then to 55% B by 60 min, followed by re-equilibration for another 10 min. For the remaining samples, method 2 started at 10% B and increased to 60% B over 30 min, subsequently was maintained at 60% B for an additional 10 min, and then changed to 90% B over 2 min and maintained for 2 min. Afterwards, a re-equilibration step (decreased to 10% B over 1 min and maintained at 10% B for additional 9 min) was followed. For each matrix, more than 98% of the radioactivity injected into the column was eluted during the running time of the gradient program. […]

[4] = as above; type: in vivo, broilers; conditions: broiler chicken, kidney, oral, 5 mg/kg b.w.
Experimental: as §2, §5, §6

[5] = Metabolite profiling of ADP in excreta, plasma and bile (LC-v.ARC/MS-IT-TOF); type: in vivo, rats
Experimental: as §1, §2, §3, §4

[6] = Concentration and elimination of ADP and its metabolites in liver, kidney, muscle, fat/skin after oral ^3H-ADP for 7 d; type: in vivo, rats; conditions: rat, liver, oral, 5 mg/kg b. w.
Experimental: as §2, §5, §6

[7] = rats, within 3 d; cited from earlier work

| percentage of the individual metabolite compared with the total concentration of ADP-related ([1]; Swine Urine) [%] | Average percentage of ADP and its metabolites in total dose [1] [%] | percentage of the individual metabolite compared with the total concentration of ADP-related ([2]; Broilers Extra (excreta), within 6 h after dosing) [%] | Average percentage of ADP and its metabolites in total dose ([2]; Broilers, Excreta, single oral 5 mg/kg b.w. ^3H-ADP) [%] | concentration at 0.25 d ([3]; liver) [ng/g] | concentration at 0.25 d [4] [ng/g] | percentage of the individual metabolite compared with the total concentration of ADP-related ([1]; Swine Plasma) [%] | concentration at 0.25 d ([3]; kidney) [ng/g] | concentration at 1 d ([3]; kidney) [ng/g] | concentration at 1 d ([3]; liver) [ng/g] | Average percentage of ADP and its metabolites in total dose ([5]; Rat, Urine, single oral 5 mg/kg b.w. ^3H-ADP) [%] | percentage of the individual metabolite compared with the total concentration of ADP-related ([5]; Rats Urine, within 6 h after dosing) [%] | concentration at 0.25 d [6] [ng/g] | SMILES | oral dose recovered [7] |
| --- | --- | --- | --- | --- | --- | --- | --- | --- | --- | --- | --- | --- | --- | --- |
| 9.7 | 5.4 | 3.5 | 6.4 | 940 ± 170 | 110 ± 90 |  |  |  |  |  |  |  | COc1cc(Cc2cnc(N)nc2N)cc(O)c1N(C)C [A3, 3-OH-ADP] |  |
| 4.8 | 3.1 |  |  | 320 ± 30 |  | 4.6 | 520 ± 80 | 480 ± 260 | 270 ± 40 |  |  |  | CNc1c(O)cc(C(O)c2cnc(N)nc2N)cc1OC (stereo not shown) [A4, 3-OH-4-methylamino-ADP] |  |
| 1.2 | 1.9 |  |  | 430 ± 40 |  | 1.6 | 710 ± 110 | 270 ± 150 | 260 ± 40 |  |  |  | CNc1c(OC)cc(C(O)c2cnc(N)nc2N)cc1OC (stereo not drawn) [A5, 4-methylamino-α-OH-ADP] |  |
| 6.4 | 3.7 |  |  | 360 ± 40 |  | 3.8 | 690 ± 100 | 60 ± 30 |  | 0.5 | 3.1 | 10 ± 10 | COc1cc(C(O)c2cnc(N)nc2N)cc(O)c1N(C)C (stereo not drawn) [A6, 3-OH-α-OH-ADP] |  |
| 1.9 | 1.8 |  |  | 790 ± 170 |  |  |  |  | 450 ± 90 |  |  |  | CNc1c(O)cc(Cc2cnc(N)nc2N)cc1OC [A7, 4-methylamino-3-OH-ADP] |  |
| 1.4 | 1.0 |  |  | 20 |  |  |  |  |  |  |  |  | COc1cc(C(O)c2cnc(N)nc2N)cc(OC)c1N(C)C (stereo not drawn) [A8, α-OH-ADP] |  |
|  |  |  |  |  |  |  |  |  |  |  |  |  | COc1cc(Cc2cnc(N)nc2N)cc(OC)c1OC [TMP, trimethoprim] | more than 95 % of the oral dose |
